Molecular target: cGAS (Homo sapiens, UniProt Q8N884)
Assay: ISD70-driven IP-10 (and IFN-β) production in THP-1 cells, ELISA
Assay type: cell-based
Parameters: endogenous in cells; host or cells: THP-1 (undifferentiated)
Details: ASO 100 nM; relative to ISD70 only, given as fraction

cGAS, sequence (Q8N884 whole entry): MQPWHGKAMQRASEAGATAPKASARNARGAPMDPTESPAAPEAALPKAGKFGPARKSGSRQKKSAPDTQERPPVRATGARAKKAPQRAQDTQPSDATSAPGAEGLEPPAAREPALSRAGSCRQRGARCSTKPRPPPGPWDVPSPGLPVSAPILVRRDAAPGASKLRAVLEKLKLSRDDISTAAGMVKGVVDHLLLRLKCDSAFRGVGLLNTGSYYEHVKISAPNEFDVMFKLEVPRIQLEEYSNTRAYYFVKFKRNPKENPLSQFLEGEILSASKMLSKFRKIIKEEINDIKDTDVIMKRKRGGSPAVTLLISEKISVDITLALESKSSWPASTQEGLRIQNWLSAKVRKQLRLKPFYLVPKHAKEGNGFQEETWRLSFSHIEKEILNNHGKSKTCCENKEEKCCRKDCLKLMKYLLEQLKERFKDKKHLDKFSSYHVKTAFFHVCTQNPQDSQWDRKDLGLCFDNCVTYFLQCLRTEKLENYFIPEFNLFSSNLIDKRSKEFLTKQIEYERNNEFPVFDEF

Row | Sequence | cGAS 100 nM (averaged IP-10 level relative to ISD70 condition)
1 | AAAGGACTGAGGAAAG (antisense; LNA-modified, pattern not given here) [CAMSAP1-6273 LNA KL] | 0.675
2 | AACACTTCGTGGGGTC (antisense; LNA-modified, pattern not given here) [HPRT LNA-666 V1] | 0.598
3 | AACCCCTTTCACCATC (antisense; LNA-modified, pattern not given here) [MB21D1-689 LNA KL] | 0.621
4 | AATCCAACAAAGTCTG (antisense; LNA-modified, pattern not given here) [HPRT LNA-692 KL] | 0.649
5 | ACCACGTCTGCTCTAA (antisense; LNA-modified, pattern not given here) [CAMSAP1-1635 LNA KL] | 0.638
6 | ACGTTCAGTCCTGTCC (antisense; LNA-modified, pattern not given here) [HPRT LNA-294 V1] | 0.880
7 | ACTTCGTGGGGTCCTT (antisense; LNA-modified, pattern not given here) [HPRT LNA-663 V1] | 0.937
8 | AGATTTCAGAGCAGCT (antisense; LNA-modified, pattern not given here) [EGFR-4885 LNA KL] | 0.625
9 | AGCTTCGAGGCCCCAG (antisense; LNA-modified, pattern not given here) [MB21D1-616 LNA V1] | 0.648
10 | AGGACTCCAGATGTTT (antisense; LNA-modified, pattern not given here) [HPRT LNA pos cont] | 0.632
11 | AGGCCCTTCGCACTTC (antisense; LNA-modified, pattern not given here) [EGFR-1225 LNA V1] | 0.629
12 | AGGTCTTGGCTTCGTG (antisense; LNA-modified, pattern not given here) [MB21D1-524 LNA V1] | 0.947
13 | AGTGTTGAGATACTCG (antisense; LNA-modified, pattern not given here) [EGFR-3652 LNA KL] | 0.692
14 | ATCTGGCAGCCCATCA (antisense; LNA-modified, pattern not given here) [CTNN2B-2516 LNA V1] | 0.502
15 | ATGGCCTCCCATCTCC (antisense; LNA-modified, pattern not given here) [HPRT LNA-330 V1] | 0.475
16 | ATGTGATGGCCTCCCA (antisense; LNA-modified, pattern not given here) [HPRT LNA-335 V1] | 0.606
17 | CACTTCGTGGGGTCCT (antisense; LNA-modified, pattern not given here) [HPRT LNA-664 V1] | 0.562
18 | CATCCACCACGTCGTC (antisense; LNA-modified, pattern not given here) [EGFR-3266 LNA V1] | 0.902
19 | CCAACACTTCGTGGGG (antisense; LNA-modified, pattern not given here) [HPRT LNA-668 V1] | 0.842
20 | CCACATCCTGTGGCTC (antisense; LNA-modified, pattern not given here) [CAMSAP1-2906 LNA V1] | 0.999

Same assay, conditions: MOE-modified ASO at 100 nM; averaged IP-10 levels relative to ISD70 condition

Row | Sequence | cGAS 100 nM
21 | ACACTTCGTGGGGTCCTTTT (antisense; 2'-MOE modified, pattern not given here) [HPRT-663 MOE] | 0.623
